Experimental data as given in patent publication US20260262691A1, “USE OF VANILLYL ETHERS TO MODIFY FLAVOR” (Firmenich Incorporated, priority 2023, published 2026).

Columns and labels:
[1] = Sensory panel rating of bitterness and astringency of liquid pea protein concentrate with vanillyl ethers; format: in vivo; details: pea protein 3 percent by weight in water, without sugar; vanillyl ether 0.5 ppm; sensory panelists, scale from 0 to 10
Method: Liquid pea protein concentrate compositions were prepared (3 percent by weight in water) without sugar added. Control and test samples were prepared. To two test samples vanillyl ethyl ether (VEE) and vanillyl butyl ether (VBE) were added, respectively, at a concentration of 0.5 ppm. The control and test samples were evaluated by sensory panelists to rate the bitterness and astringency of the control sample and the two test samples on a scale from 0 to 10. Table 2 reports the mean difference between the bitterness and astringency scores between the control sample and each of the two test samples.

[2] = Sensory panel rating of characteristics of lemon tea beverage with vanillyl ethers; format: in vivo; details: lemon tea beverage with Stevia sweetener, VEE 0.5 ppm (phloretin 8 ppm where combined), scale from 0 to 10, higher = more intense
Method: Samples of a lemon tea beverage were prepared.
Two test samples were prepared by adding (a) vanillyl ethyl ether (VEE) at a concentration of 0.5 ppm, and (b) vanillyl ethyl ether (VEE) at a concentration of 0.5 ppm and phloretin at a concentration of 8 ppm. The control and test samples were evaluated by sensory panelists to rate various characteristics of the control sample and the two test samples on a scale from 0 to 10.

Structure (SMILES): CCCCOCc1ccc(O)c(OC)c1 [VBE, 4-(butoxymethyl)-2-methoxyphenol]
- Astringency: mean difference between scores of control sample and test sample [1]: −2.2
- Bitterness: mean difference between scores of control sample and test sample [1]: −1.0

Structure (SMILES): CCOCc1ccc(O)c(OC)c1 [VEE, 4-(ethoxymethyl)-2-methoxyphenol]
- Astringency: mean difference between scores of control sample and test sample [1]: −1.5
- Bitterness: mean difference between scores of control sample and test sample [1]: −0.5
- Off Note Intensity (mean score) ([2]; control 2.9): 2.4
- Astringency (mean score) ([2]; control 3.0): 2.1
- Mouthfeel (mean score) ([2]; control 3.1): 3.5
- Bitterness (mean score) ([2]; control 3.8): 2.7
- Unfront Sweetness (mean score) ([2]; control 4.5): 4.7
- Lemon Flavor (mean score) ([2]; control 4.6): 4.8
- Lingering Sweetness (mean score) ([2]; control 4.9): 4.0
- Peak Sweetness (mean score) ([2]; control 5.4): 5.4
